Source: patent US7244431B2, “Allergy vaccines and their preparation” (priority 2000, dated 2007)

Key:
[1] = system: IgE antibodies in sera from birch pollen allergic patients; experiment: ELISA detection of peptide- and rBet v 1-specific IgE antibodies; format: binding, human
Description: Birch pollen allergic patients suffering from allergic rhinoconjunctivitis and/or asthma to birch pollen and related allergens were selected according to case history indicative for seasonal birch pollinosis and characterized by skin prick testing with birch pollen extract and serological CAP RAST (Pharmacia Diagnostics, Uppsala, Sweden) testing. Total IgE levels in the sera were determined by CAP RIST measurements (Pharmacia). […] Sera from 60 birch pollen allergic patients and a non-atopic individual were used for IgE competition studies. The birch pollen allergic patients group consisted of 25 males and 35 females with a mean age of 37 years (ranging from 19-60 years) (Table 2).
Subsequently, plates were incubated with 1:3 diluted sera from 60 birch pollen allergic patients and from a non-atopic individual overnight at 4° C. Bound IgE antibodies were detected with a 1:1000 diluted alkaline-phosphatase-coupled mouse monoclonal anti-human IgE antibody (Pharmingen, San Diego, Calif.).

[2] = system: birch pollen allergic patients; experiment: Skin prick testing of allergic patients; format: in vivo, human; details: 100 μg/ml
Description: SPTs were performed on the individuals forearms as described ([…]. et al. (1997) J. Clin Invest. 99, 1673-168; Dreborg S: (1989) J. Am. Acad. DerMatol. 21, 820-821). […] In addition standardized skin prick solutions (birch pollen extract and histamine) (Allergopharma, Reinbek, Germany) were tested. Reactions were recorded 20 minutes after SPT by photography and by transferring the ballpoint pen-surrounded wheal area with a scotch tape to paper.

## MGVFNYETETTSVIPAARLFKAFIC [Peptide P1, Bet v 1-derived synthetic peptide, position aa 1-24, one cysteine added]
[1]; serum of NHS, non-allergic control individual
  IgE (OD): — (Dashes indicate reactivities below the cut-off level (OD=0.050))
[1]; serum of patient 1
  IgE (OD): — (Dashes indicate reactivities below the cut-off level (OD=0.050))
[1]; serum of patient 2
  IgE (OD): — (Dashes indicate reactivities below the cut-off level (OD=0.050))
[1]; serum of patient 3
  IgE (OD): — (Dashes indicate reactivities below the cut-off level (OD=0.050))
[1]; serum of patient 4
  IgE (OD): — (Dashes indicate reactivities below the cut-off level (OD=0.050))
[1]; serum of patient 5
  IgE (OD): — (Dashes indicate reactivities below the cut-off level (OD=0.050))
[1]; serum of patient 6
  IgE (OD): — (Dashes indicate reactivities below the cut-off level (OD=0.050))
[1]; serum of patient 7
  IgE (OD): — (Dashes indicate reactivities below the cut-off level (OD=0.050))
[1]; serum of patient 8
  IgE (OD): — (Dashes indicate reactivities below the cut-off level (OD=0.050))
[1]; serum of patient 9
  IgE (OD): — (Dashes indicate reactivities below the cut-off level (OD=0.050))
[1]; serum of patient 10
  IgE (OD): — (Dashes indicate reactivities below the cut-off level (OD=0.050))
[1]; serum of patient 11
  IgE (OD): — (Dashes indicate reactivities below the cut-off level (OD=0.050))
[1]; serum of patient 12
  IgE (OD): — (Dashes indicate reactivities below the cut-off level (OD=0.050))
[1]; serum of patient 13
  IgE (OD): — (Dashes indicate reactivities below the cut-off level (OD=0.050))
[1]; serum of patient 14
  IgE (OD): — (Dashes indicate reactivities below the cut-off level (OD=0.050))
[1]; serum of patient 15
  IgE (OD): — (Dashes indicate reactivities below the cut-off level (OD=0.050))
[1]; serum of patient 16
  IgE (OD): — (Dashes indicate reactivities below the cut-off level (OD=0.050))
[1]; serum of patient 17
  IgE (OD): — (Dashes indicate reactivities below the cut-off level (OD=0.050))
[1]; serum of patient 18
  IgE (OD): — (Dashes indicate reactivities below the cut-off level (OD=0.050))
[1]; serum of patient 19
  IgE (OD): — (Dashes indicate reactivities below the cut-off level (OD=0.050))
[1]; serum of patient 20
  IgE (OD): — (Dashes indicate reactivities below the cut-off level (OD=0.050))
[1]; serum of patient 21
  IgE (OD): — (Dashes indicate reactivities below the cut-off level (OD=0.050))
[1]; serum of patient 22
  IgE (OD): — (Dashes indicate reactivities below the cut-off level (OD=0.050))
[1]; serum of patient 23
  IgE (OD): — (Dashes indicate reactivities below the cut-off level (OD=0.050))
[1]; serum of patient 24
  IgE (OD): — (Dashes indicate reactivities below the cut-off level (OD=0.050))
[1]; serum of patient 25
  IgE (OD): — (Dashes indicate reactivities below the cut-off level (OD=0.050))
[1]; serum of patient 26
  IgE (OD): — (Dashes indicate reactivities below the cut-off level (OD=0.050))
[1]; serum of patient 27
  IgE (OD): — (Dashes indicate reactivities below the cut-off level (OD=0.050))
[1]; serum of patient 28
  IgE (OD): — (Dashes indicate reactivities below the cut-off level (OD=0.050))
[1]; serum of patient 29
  IgE (OD): — (Dashes indicate reactivities below the cut-off level (OD=0.050))
[1]; serum of patient 30
  IgE (OD): — (Dashes indicate reactivities below the cut-off level (OD=0.050))
[1]; serum of patient 31
  IgE (OD): — (Dashes indicate reactivities below the cut-off level (OD=0.050))
[1]; serum of patient 32
  IgE (OD): — (Dashes indicate reactivities below the cut-off level (OD=0.050))
[1]; serum of patient 33
  IgE (OD): — (Dashes indicate reactivities below the cut-off level (OD=0.050))
[1]; serum of patient 34
  IgE (OD): — (Dashes indicate reactivities below the cut-off level (OD=0.050))
[1]; serum of patient 35
  IgE (OD): — (Dashes indicate reactivities below the cut-off level (OD=0.050))
[1]; serum of patient 36
  IgE (OD): — (Dashes indicate reactivities below the cut-off level (OD=0.050))
[1]; serum of patient 37
  IgE (OD): — (Dashes indicate reactivities below the cut-off level (OD=0.050))
[1]; serum of patient 38
  IgE (OD): — (Dashes indicate reactivities below the cut-off level (OD=0.050))
[1]; serum of patient 39
  IgE (OD): — (Dashes indicate reactivities below the cut-off level (OD=0.050))
[1]; serum of patient 40
  IgE (OD): — (Dashes indicate reactivities below the cut-off level (OD=0.050))
[1]; serum of patient 41
  IgE (OD): — (Dashes indicate reactivities below the cut-off level (OD=0.050))
[1]; serum of patient 42
  IgE (OD): — (Dashes indicate reactivities below the cut-off level (OD=0.050))
[1]; serum of patient 43
  IgE (OD): — (Dashes indicate reactivities below the cut-off level (OD=0.050))
[1]; serum of patient 44
  IgE (OD): — (Dashes indicate reactivities below the cut-off level (OD=0.050))
[1]; serum of patient 45
  IgE (OD): — (Dashes indicate reactivities below the cut-off level (OD=0.050))
[1]; serum of patient 46
  IgE (OD): — (Dashes indicate reactivities below the cut-off level (OD=0.050))
[1]; serum of patient 47
  IgE (OD): — (Dashes indicate reactivities below the cut-off level (OD=0.050))
[1]; serum of patient 48
  IgE (OD): — (Dashes indicate reactivities below the cut-off level (OD=0.050))
[1]; serum of patient 49
  IgE (OD): — (Dashes indicate reactivities below the cut-off level (OD=0.050))
[1]; serum of patient 50
  IgE (OD): — (Dashes indicate reactivities below the cut-off level (OD=0.050))
[1]; serum of patient 51
  IgE (OD): — (Dashes indicate reactivities below the cut-off level (OD=0.050))
[1]; serum of patient 52
  IgE (OD): — (Dashes indicate reactivities below the cut-off level (OD=0.050))
[1]; serum of patient 53
  IgE (OD): — (Dashes indicate reactivities below the cut-off level (OD=0.050))
[1]; serum of patient 54
  IgE (OD): — (Dashes indicate reactivities below the cut-off level (OD=0.050))
[1]; serum of patient 55
  IgE (OD): — (Dashes indicate reactivities below the cut-off level (OD=0.050))
[1]; serum of patient 56
  IgE (OD): — (Dashes indicate reactivities below the cut-off level (OD=0.050))
[1]; serum of patient 57
  IgE (OD): — (Dashes indicate reactivities below the cut-off level (OD=0.050))
[1]; serum of patient 58
  IgE (OD): — (Dashes indicate reactivities below the cut-off level (OD=0.050))
[1]; serum of patient 59
  IgE (OD): — (Dashes indicate reactivities below the cut-off level (OD=0.050))
[1]; serum of patient 60
  IgE (OD): — (Dashes indicate reactivities below the cut-off level (OD=0.050))
[2]; individual 1
  mean wheal diameter: 0 mm
[2]; individual 2
  mean wheal diameter: 0 mm
[2]; individual 3
  mean wheal diameter: 0 mm
[2]; individual 4
  mean wheal diameter: 0 mm
[2]; individual 5
  mean wheal diameter: 0 mm
[2]; individual 6 (allergic, without birch pollen allergy)
  mean wheal diameter: 0 mm
